From patent US6436942B1, “Enantiomers of 1[(4-chloro-phenyl) phenylmethyl]-4-[(4-methylphenyl) sulfony]piperazine” (UCB, S.A., priority 1993, dated 2002)
Structures can show the parent of a compound that is named as a salt. Where two headings read alike, the source gives them in different places.

Key:
[1] = molecular target: T1, rat cortex histamine H1 receptor (Rattus norvegicus, UniProt P31390); test: Affinity towards the histamine H1 receptor ([3H]mepyramine competitive binding); conditions: cologarithm of Ki, mean ± deviation (n=2); [3H]mepyramine 4.5×10^−9 mole/l, rat cortex membranes
T1 construct: the samples containing 0.5 mg of cortex membrane protein; from tissue; host or cells: cerebral cortex membranes of male Sprague-Dawley rats
T1 sequence (P31390 whole entry): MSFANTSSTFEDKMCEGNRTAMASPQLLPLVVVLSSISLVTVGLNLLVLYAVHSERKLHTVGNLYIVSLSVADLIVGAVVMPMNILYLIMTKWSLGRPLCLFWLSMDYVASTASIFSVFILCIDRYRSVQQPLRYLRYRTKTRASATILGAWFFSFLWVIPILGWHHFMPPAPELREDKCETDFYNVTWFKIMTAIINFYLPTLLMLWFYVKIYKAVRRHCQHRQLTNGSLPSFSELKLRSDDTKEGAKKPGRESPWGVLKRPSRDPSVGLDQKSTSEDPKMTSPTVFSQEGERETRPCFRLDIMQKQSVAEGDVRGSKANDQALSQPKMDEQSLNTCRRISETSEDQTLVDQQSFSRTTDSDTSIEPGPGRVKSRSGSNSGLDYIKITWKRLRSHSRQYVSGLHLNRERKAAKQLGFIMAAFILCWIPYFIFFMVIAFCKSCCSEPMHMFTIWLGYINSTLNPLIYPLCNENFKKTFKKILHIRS
Procedure: Cerebral cortexes from male Sprague-Dawley rats are homogenized in 2 ml per cortex of a 20 mM Tris-HCl buffer (pH 7.4) containing 250 mM sucrose. The homogenates are centrifuged at 30,000 g for 30 minutes at 4° C. and the centrifugation pellets are resuspended in the same fresh buffer and preserved in liquid nitrogen. […] The bound [^3H]mepyramine is separated from the free radioligand by rapid filtration of the sample through a Whatman GF/C filter, previously impregnated for at least 2 hours with a 0.1% solution of polyethyleneimine, in order to reduce the possibility of non-specific binding of the radioligand with other proteins. […] The radioactivity thereof is then measured using a β particle Tri-carb 1090 scintillation counter (Camberra-Packard, Belgium). Non-specific binding has been estimated in the presence of a 10 μM aqueous solution of cetirizine and represents 30% of the total binding. […] DE LEAN et al., Mol. Pharmacol., 21 (1982), 5-16) and their inhibition constants (Ki) are calculated by means of the CHENG and PRUSOFF equation (Y. C. CHENG and W. H. PRUSOFF, Biochem. Pharmacol., 22 (1973), 3099-3108). Table III below gives the values of pKi (cologarithm of Ki) calculated from Ki (mean value±deviation with respect to the mean (n=2)), for the compounds tested.

mice = test: Toxicity: lethal dose in mice after intraperitoneal injection; format: in vivo; conditions: dose causing death in 2 out of 3 mice
[2] = tested on: isolated guinea pig trachea; test: Peripheral antihistaminic properties: inhibition of histamine-induced contraction of isolated guinea pig trachea; conditions: mean ± standard deviation, histamine-contracted guinea pig trachea; for pA2: competitive inhibition; for pD2′: non-competitive inhibition
Procedure: Tracheas of Dunkin-Hartley guinea pigs of both sexes (weight: 250-500 g) are excised and cut into four fragments of three segments of cartilage each. These fragments are immersed in a Krebs-Heinseleit solution at 37° C. containing 10^−7 mole/l of atropine and 10^−5 mole/l of indomethacin and are stretched with a weight of 1 g. The solution is aerated with a current of oxygen containing 5% carbon dioxide. Each change in tension, is recorded with an isometric force indicator K 30 (from Hugo Sachs Elektronik) coupled to an amplifier and a Sanborn 7700 recorder (from Hewlett Packard). The preparation (i.e. trachea fragment) so obtained is allowed to stabilize for one hour during which the base line for the tension is readjusted if necessary.
After washing and stabilization, a cumulative curve showing the effects of histamine, as a function of its concentration (10^−6, 10^−5 and 10^−4 mole/l) is plotted as a control.
For the same preparation, four further cumulative curves showing the effects of histamine as a function of its concentration are then recorded at four increasing concentrations of each compound to be tested.
The compounds to be tested are incorporated in the medium five minutes before the histamine. Between each measurement, the preparations are washed at least four times with an interval of five minutes between each washing. Each compound is tested on at least 6 trachea fragments. When the last curve is plotted, additional concentrations of 3.2×10^−4 and 10^−3 mole/l of histamine are added in order to determine whether the antagonism is competitive or not.

[3] = tested on: cutaneous reaction induced by histamine; test: Inhibition of the cutaneous reaction induced by histamine in dogs; format: in vivo, dog; conditions: for Area of wheals: nine Beagle dogs, mean ± SD; for Wheal area as percent of reference: with respect to reference area (100%); for inhibition at 0.15 mg/kg: Canis lupus familiaris
Procedure: The dog is considered, among the animal species, to be the species having a sensitivity to histamine relatively close to that of man.
In this test, nine Beagle dogs are used, having an average weight of 12.6 kg and of about two years of age and of which the abdomens have been locally shaved. 50 μl of a 0.9% aqueous solution of sodium chloride, containing 10 μg/ml of histamine, is injected intradermally into the shaved area. Simultaneously, a solution of Evans blue dye (60 mg/ml in a 0.9% aqueous solution of sodium chloride), is administered by intravenous injection to each dog at a dose of 0.1 ml/kg. An allergic reaction develops at the intradermal injection site and there appears a wheal, the area of which is measured exactly 30 minutes after the two injections. This area is taken as the reference. area (100%)
The compound to be tested is then administered orally, at a dose of 0.15 mg/kg (0.32×10^−6 mole/kg). 0.5, 1.5, 3, 6, 9, 12, 24 and 32 hours after administration of the compound to be tested, new wheals are induced at different abdominal locations by injecting histamine. Each time, the area of the induced wheal is measured 30 minutes after the injection of histamine.
The antihistaminic activity of a compound on the cutaneous allergic reaction is determined by measuring the reduction in the area of the induced wheals, following administration of the compound, with respect to the area of the reference wheal, and then expressed in percent.

[4] = 0.5 hours after 0.15 mg/kg oral
[5] = 1.5 hours after 0.15 mg/kg oral

SMILES	Ki [1] [nM]	Lethal dose (mice) [mol/kg]	pA2 [2]	other results
Cc1cccc(CN2CCN(C(c3ccccc3)c3ccc(Cl)cc3)CC2)c1 (single isomer, unassigned) [C, levorotatory dihydrochloride of 1-[(4-chlorophenyl)phenylmethyl]-4-[(3-methylphenyl)methyl]piperazine]	631	>0.001	–	–
Cc1cccc(CN2CCN(C(c3ccccc3)c3ccc(Cl)cc3)CC2)c1 (single isomer, unassigned) [D, dextrorotatory dihydrochloride of 1-[(4-chlorophenyl)phenylmethyl]-4-[(3-methylphenyl)methyl]piperazine]	63.1	>0.001	–	–
CC(C)(C)c1ccc(CN2CCN(C(c3ccccc3)c3ccc(Cl)cc3)CC2)cc1 (single isomer, unassigned) [E, levorotatory dihydrochloride of 1-[(4-tert-butylphenyl)methyl]-4-[(4-chlorophenyl)phenylmethyl]piperazine]	1260	0.001	–	–
CC(C)(C)c1ccc(CN2CCN(C(c3ccccc3)c3ccc(Cl)cc3)CC2)cc1 (single isomer, unassigned) [F, dextrorotatory dihydrochloride of 1-[(4-tert-butylphenyl)methyl]-4-[(4-chlorophenyl)phenylmethyl]piperazine]	631	>0.001	–	–
OCCOCCN1CCN(C(c2ccccc2)c2ccc(Cl)cc2)CC1 (single isomer, unassigned) [G, levorotatory dihydrochloride of 2-[2-[4-[(4-chlorophenyl)phenylmethyl]-1-piperazinyl]ethoxy]ethanol]	25.1	0.0006	6.5 ± 0.3	–
OCCOCCN1CCN(C(c2ccccc2)c2ccc(Cl)cc2)CC1 (single isomer, unassigned) [H, dextrorotatory dihydrochloride of 2-[2-[4-[(4-chlorophenyl)phenylmethyl]-1-piperazinyl]ethoxy]ethanol]	2	0.0006	–	pD2′ [2]: 6.7 ± 0.1
OCCOCCOCCN1CCN(C(c2ccccc2)c2ccc(Cl)cc2)CC1 (single isomer, unassigned) [I, levorotatory dihydrochloride of 2-[2-[2-[4-[(4-chlorophenyl)phenylmethyl]-1-piperazinyl]ethoxy]ethoxy]ethanol]	79.4	0.0001	6.5 ± 0.4	–
OCCOCCOCCN1CCN(C(c2ccccc2)c2ccc(Cl)cc2)CC1 (single isomer, unassigned) [J, dextrorotatory dihydrochloride of 2-[2-[2-[4-[(4-chlorophenyl)phenylmethyl]-1-piperazinyl]ethoxy]ethoxy]ethanol]	2.51	0.0001	–	pD2′ [2]: 6.0 ± 0.3
COC(=O)COCCN1CCN(C(c2ccccc2)c2ccc(Cl)cc2)CC1 (single isomer, unassigned) [M, levorotatory dimaleate of methyl 2-[2-[4-[(4-chlorophenyl)phenylmethyl]-1-piperazinyl]ethoxy]acetate]	3.16	–	–	–
COC(=O)COCCN1CCN(C(c2ccccc2)c2ccc(Cl)cc2)CC1 (single isomer, unassigned) [N, dextrorotatory dimaleate of methyl 2-[2-[4-[(4-chlorophenyl)phenylmethyl]-1-piperazinyl]ethoxy]acetate]	79.4	–	–	–
O=C(O)COCCN1CCN(C(c2ccccc2)c2ccc(Cl)cc2)CC1 (single isomer, unassigned) [O, levorotatory dihydrochloride of 2-[2-[4-[(4-chlorophenyl)phenylmethyl]-1-piperazinyl]ethoxy]acetic acid]	39.8	–	6.6 ± 0.3	–
O=C(O)COCCN1CCN(C(c2ccccc2)c2ccc(Cl)cc2)CC1 (single isomer, unassigned) [P, dextrorotatory dihydrochloride of 2-[2-[4-[(4-chlorophenyl)phenylmethyl]-1-piperazinyl]ethoxy]acetic acid]	6.31	–	–	Area of wheals [3, 4]: 65 ± 10 mm^2; Wheal area as percent of reference [3, 4]: 85%; reduction in the area of the wheals ([3]; 30 minutes after administration, 0.15 mg/kg oral, dogs): 15%; Area of wheals [3, 5]: 44 ± 12 mm^2; Wheal area as percent of reference [3, 5]: 58%; Area of wheals ([3]; 3 hours after 0.15 mg/kg oral): 33 ± 10 mm^2; Wheal area as percent of reference ([3]; 3 hours after 0.15 mg/kg oral): 43%; Area of wheals ([3]; 6 hours after 0.15 mg/kg oral): 41 ± 13 mm^2; Wheal area as percent of reference ([3]; 6 hours after 0.15 mg/kg oral): 54%; Area of wheals ([3]; 9 hours after 0.15 mg/kg oral): 41 ± 10 mm^2; Wheal area as percent of reference ([3]; 9 hours after 0.15 mg/kg oral): 54%; Area of wheals ([3]; 12 hours after 0.15 mg/kg oral): 41 ± 10 mm^2; Wheal area as percent of reference ([3]; 12 hours after 0.15 mg/kg oral): 54%; Area of wheals ([3]; 24 hours after 0.15 mg/kg oral): 45 ± 5 mm^2; Wheal area as percent of reference ([3]; 24 hours after 0.15 mg/kg oral): 59%; Area of wheals ([3]; 32 hours after 0.15 mg/kg oral): 51 ± 5 mm^2; Wheal area as percent of reference ([3]; 32 hours after 0.15 mg/kg oral): 67%; inhibition at 0.15 mg/kg ([3]; 3 h, after three hours, 0.15 mg/kg oral, dogs, read-out: Maximum inhibition (of wheal area)): 57%; inhibition at 0.15 mg/kg ([3]; after 32 hours, 0.15 mg/kg oral, dogs, read-out: inhibition (of wheal area), statistically significant): 33%; pD2′ [2]: 6.3 ± 0.2
Clc1ccc(C(c2ccccc2)N2CCNCC2)cc1 (single isomer, unassigned; (+)) [B, (+)-1-[(4-chlorophenyl)phenylmethyl]piperazine]	–	–	5.0 ± 0.1	–
NC(=O)COCCN1CCN(C(c2ccccc2)c2ccc(Cl)cc2)CC1 (single isomer, unassigned; (+)) [Compound L, (+)-2-[2-[4-[(4-chlorophenyl)phenylmethyl]-1-piperazinyl]ethoxy]acetamide]	158	0.001	6.4 ± 0.2	–
Clc1ccc(C(c2ccccc2)N2CCNCC2)cc1 (single isomer, unassigned; (-)) [A, (−)-1-[(4-chlorophenyl)phenylmethyl]piperazine]	–	–	5.7 ± 0.4	–
NC(=O)COCCN1CCN(C(c2ccccc2)c2ccc(Cl)cc2)CC1 (single isomer, unassigned; (-)) [K, (−)-2-[2-[4-[(4-chlorophenyl)phenylmethyl]-1-piperazinyl]ethoxy]acetamide]	2.51	0.0003	–	pD2′ [2]: 6.3 ± 0.2
